{"source": "patent US20240226302A1", "about": "“BIODEGRADABLE LIPIDS AND FORMULATIONS FOR INTRAMUSCULAR, IN VITRO, AND EX VIVO TRANSFECTION OF MRNA” (Massachusetts Institute of Technology, priority 2022, published 2024)", "key": {"Jurkat cells": {"test_system": "Jurkat cells", "test": "mRNA (luciferase) transfection of Jurkat cells by LNPs, Bright-Glo assay", "type": "cell-based, human", "settings": "150 ng mRNA", "method": "(§1) LNPs for in vitro studies and intramuscular injections were prepared by hand mixing. The lipid components were dissolved in ethanol and, separately, mRNA encoding for firefly luciferase (fLuc) was diluted into a solution of 10 mM citrate pH 3.0 at a concentration of […]. The two solutions were mixed in a 3:1 water:ethanol volume ratio by repeatedly pipetting up and down. For intravenous studies, nanoparticles were instead formed by mixing the ethanol and aqueous phases with a microfluidic chip as described previously.\nBased on high transfection potency in Hela cells, some of the potent lipids were tested for mRNA delivery efficacy in Jurkat cells, an immortalized human T-cell line for potential CAR-T therapeutic applications. Jurkat cells were cultured in a RPMI-1640 medium with L-glutamine supplemented with 10% bovine serum and 1% penicillin-streptomycin. Jurkat cells were plated on a white, flat-bottom 96 well plate (Corning, Corning, NY) at a density of 100k cells/well and co-incubated dosed with 150 ng of mRNA. Luciferase expression in the cells was determined after 24 hours using a Bright-Glo assay (Promega, Madison, WI) and normalized to cell viability (Multi-tox, Promega)."}, "mice": {"test_system": "mice", "test": "Intramuscular injection of LNPs loaded with firefly luciferase mRNA, 0.25 mg/kg, luciferase expression", "type": "in vivo", "settings": "for potency compared to MD-1 (luciferase expression): 0.25 mg/kg Fluc mRNA", "method": "as §1\nThe in vivo potency of the ionizable lipids was screened through intramuscular injection of LNPs loaded with mRNA encoding firefly luciferase protein. These LNPs were formulated with a molar composition of (35:16:46.5:2.5) using one of the synthesized ionizable lipids, DOPE as a helper lipid, cholesterol, and DMPE-PEG. Ionizable lipid AMG104 was chosen due to high in vitro mRNA transfection ability. mRNA-loaded LNPs were intramuscularly administered in mice at a dose of 0.25 mg/kg (5 μg) and expression of luciferase protein was monitored at 6 hours (0.25 day), and day 1, 2, 3, 5 and 7.\nAdditional lipids were synthesized varying length of the hydrophobic tail with or without one alkene or by varying the location of the internal alkene near or away from the ester linkage. The number of carbons on the amine headgroup was also varied (FIG. 4). […] The luciferase expression was monitored at 6 h, 24 h, and 48 h time points after intramuscular administration of Fluc mRNA dosed at 0.25 mg/kg formulated with various LNPs containing these lipids."}, "HeLa cells": {"test_system": "HeLa cells", "test": "In vitro full factorial DOE formulation screening of LNPs, luciferase expression, Bright-Glo assay", "type": "cell-based", "method": "as §1\nHeLa cells were plated on a white, flat-bottom 96 well plate (Corning, Corning, NY) at a density of 15k cells/well and allowed to recover for 24 hrs. Each well was then dosed with 150 ng of mRNA, and, after 24 hrs., luciferase expression was determined using a Bright-Glo assay (Promega, Madison, WI). The first generation of ionizable lipids was screened in this manner and the results are shown as performance relative to a positive control MD-1^3 in a heatmap in FIG. 2.\nFor intravenous experiments, design of experiments (DOE) was used to systematically vary the ratios of each of the LNP components for lipid AMG104. First, an initial screening of each of the components was performed using a definitive screening design. This experimental design allows for identification of the LNP components which have the greatest effect on delivery potency. […]"}, "ovalbumin": {"test_system": "ovalbumin", "test": "Vaccination against ovalbumin by intramuscular injection of Ova mRNA, antibody titers and Elispot", "type": "in vivo", "method": "AMG1041 was tested for vaccination against ovalbumin."}, "[1]": {"test": "Lipid clearance monitored by LC-MS after intramuscular injection", "type": "in vivo", "settings": "BALB/C mice, LC-MS (FIG. 15A)", "method": "AMG1041 lipid clearance was monitored by LC-MS after intramuscular injection to BALB/C mice at various time points. AMG1041 was cleared within 24 hours from the injection site in the muscle (FIG. 15A). As a comparison, SM-102 was detectable even after 40 hours (FIG. 15B).^5 https://www.ncbi.nlm.nih.gov/pmc/articles/PMC6383180/)."}, "[2]": {"test": "Intramuscular route screening with FLuc mRNA (0.1 μg), luciferase expression", "type": "in vivo", "settings": "FLuc mRNA 0.1 μg (FIG. 12)", "method": "In addition, the importance of the OH group was evaluated. The importance of the orientation of the ester and OH was also evaluated (FIG. 10). The additional tails were also used to synthesize AMG1058, AMG1059, and AMG1041OHD. From a screening experiment using 0.1 μg FLuc mRNA dose, it was determined that the ester's specific orientation and the OH groups' location are important for G41 potency and that minor alterations can dramatically decrease potency.\nThe potency of these lipids was tested in vivo via intramuscular administration. AMG1041OHD was not tested in vivo due to difficulty in formulating these particles. The FLuc mRNA (0.1 μg) intramuscular route screening data is shown in FIG. 12 for the AMG1041 derivative lipids."}, "[3]": {"settings": "comparison, FIG. 15B, reference 5 (Hassett et al.); cited from earlier work"}}}
{"smiles": "CCCCCCCC/C=C\\CCCCCCCC(=O)OCC(O)CN1CCCN(CC(O)COC(=O)CCCCCCC/C=C\\CCCCCCCC)CCN(CC(O)COC(=O)CCCCCCC/C=C\\CCCCCCCC)CCCN(CC(O)COC(=O)CCCCCCC/C=C\\CCCCCCCC)CC1", "note": "(stereo not shown) [AMG104]", "values": [{"measurement": "transfection in jurkat cells as compared to MD-1 lipid", "setting": "Jurkat cells; 24 hours (FIG. 3)", "result": "increased transfection"}, {"measurement": "mRNA transfection compared to commercially used lipofectamine positive controls", "setting": "Jurkat cells; 24 hours, normalized to cell viability (FIG. 3)", "result": "higher mRNA transfection"}, {"measurement": "luciferase protein expression in mice", "setting": "mice; 0.25 mg/kg (5 μg) fLuc mRNA, LNP 35:16:46.5:2.5 ionizable lipid:DOPE:cholesterol:DMPE-PEG", "result": "high luciferase protein expression"}, {"measurement": "potency compared to MD-1 (luciferase expression)", "setting": "mice", "result": "comparable to that of MD1"}, {"measurement": "in vitro performance of formulation 2 relative to the original (control) formulation 1", "setting": "HeLa cells; AMG104 LNP formulation 2 (helper 35%, ionizable lipid 30%, cholesterol 32.5%, DMPE-PEG 2.5%, lipid:mRNA 10:1) vs formulation 1 (16/35/46.5)", "result": "~8.2", "unit": "×"}, {"measurement": "in vitro transfection", "setting": "HeLa cells; AMG104 using formulation 2", "result": "extremely potent in vitro transfection"}]}
{"smiles": "CCCCCC/C=C\\CCCC(=O)OCC(O)CN1CCCN(CC(O)COC(=O)CCC/C=C\\CCCCCC)CCN(CC(O)COC(=O)CCC/C=C\\CCCCCC)CCCN(CC(O)COC(=O)CCC/C=C\\CCCCCC)CC1", "note": "(stereo not shown) [AMG1041]", "values": [{"measurement": "luciferase expression, times higher", "setting": "mice; 0.25 mg/kg Fluc mRNA (FIG. 5A), comparator not stated, MD-1 named in the same sentence", "result": "2-3 times"}, {"measurement": "cellular response from Elispot assay as compared to SM-102 and MD-1", "setting": "ovalbumin; after day 28 (FIG. 14)", "result": "strong cellular response"}, {"measurement": "antibody titers, potency compared to SM-102", "setting": "ovalbumin; day 14, intramuscular, varying Ova mRNA doses (FIG. 14)", "result": "higher potency compared to SM-102"}, {"measurement": "time to clearance from the injection site in the muscle", "setting": "[1]", "result": "≤ 24", "unit": "h"}]}
{"smiles": "CCCC/C=C\\CCCCCCCC(=O)OCC(O)CN1CCCN(CC(O)COC(=O)CCCCCCC/C=C\\CCCC)CCN(CC(O)COC(=O)CCCCCCC/C=C\\CCCC)CCCN(CC(O)COC(=O)CCCCCCC/C=C\\CCCC)CC1", "note": "(stereo not shown) [AMG1042]", "values": [{"measurement": "potency compared to MD-1 (luciferase expression)", "setting": "mice", "result": "nearly as potent as"}]}
{"smiles": "CCCCCC/C=C\\CCCCCCCC(=O)OCC(O)CN1CCCN(CC(O)COC(=O)CCCCCCC/C=C\\CCCCCC)CCN(CC(O)COC(=O)CCCCCCC/C=C\\CCCCCC)CCCN(CC(O)COC(=O)CCCCCCC/C=C\\CCCCCC)CC1", "note": "(stereo not shown) [AMG1043]", "values": [{"measurement": "potency compared to MD-1 (luciferase expression)", "setting": "mice", "result": "nearly as potent as"}]}
{"smiles": "CCCCCC/C=C\\CCCCCCCCCC(=O)OCC(O)CN1CCCN(CC(O)COC(=O)CCCCCCCCC/C=C\\CCCCCC)CCN(CC(O)COC(=O)CCCCCCCCC/C=C\\CCCCCC)CCCN(CC(O)COC(=O)CCCCCCCCC/C=C\\CCCCCC)CC1", "note": "(stereo not shown) [AMG1044]", "values": [{"measurement": "potency compared to MD-1 (luciferase expression)", "setting": "mice", "result": "nearly as potent as"}]}
{"smiles": "CCCC/C=C\\C/C=C\\CCC(=O)OCC(O)CN1CCCN(CC(O)COC(=O)CC/C=C\\C/C=C\\CCCC)CCN(CC(O)COC(=O)CC/C=C\\C/C=C\\CCCC)CCCN(CC(O)COC(=O)CC/C=C\\C/C=C\\CCCC)CC1", "note": "(stereo not shown) [AMG1053]", "values": [{"measurement": "luciferase expression compared to control sample with MD-1", "setting": "[2]", "result": "nearly as well as the control sample with MD-1"}]}
{"smiles": "C/C=C\\C/C=C\\CCCCCC(=O)OCC(O)CN1CCCN(CC(O)COC(=O)CCCCC/C=C\\C/C=C\\C)CCN(CC(O)COC(=O)CCCCC/C=C\\C/C=C\\C)CCCN(CC(O)COC(=O)CCCCC/C=C\\C/C=C\\C)CC1", "note": "(stereo not shown) [AMG1056]", "values": [{"measurement": "luciferase expression compared to control sample with MD-1", "setting": "[2]", "result": "performed similarly"}]}
{"smiles": "CCCCCCCCCCCOC(=O)CCCCCN(CCO)CCCCCCCC(=O)OC(CCCCCCCC)CCCCCCCC", "note": "[SM-102]", "values": [{"measurement": "time after which lipid was still detectable", "setting": "[3]", "result": "> 40", "unit": "h"}]}
